Source: patent publication US8445492B2, “Method for inhibiting growth of cancer cells and cell telomere and diseases of cell proliferation by using heteroannelated anthraquinone derivative compounds” (National Defense Medical Center, priority 2008, dated 2013)
Read-outs that look alike come from different tables or passages of the source.

Legend:
MOLT-4 [1] = assay: NCI DTP in-vitro dose response, Leukemia
HL-60(TB) [2] = system: HL-60(TB)
HL-60(TB) [3] = assay: NCI DTP in-vitro dose response, Leukemia
CCRF-CEM [4] = system: CCRF-CEM
MOLT-4 [5] = system: MOLT-4
CCRF-CEM [6] = assay: NCI DTP in-vitro dose response, Leukemia
K-562 [7] = system: K-562
RPMI-8226 [8] = system: RPMI-8226
RPMI-8226 [9] = assay: NCI DTP in-vitro dose response, Leukemia
K-562 [10] = assay: NCI DTP in-vitro dose response, Leukemia
[11] = system: different cancer cell lines; assay: in vitro test at 1.0×10^−5 M, summary over the cell lines; type: cell-based; set-up: unit not given here; settings: 1.0×10^−5 molal concentration (M)
UACC-62 = assay: in vitro test at 1.0×10^−5 M, Skin cancer cell; type: cell-based; settings: 1.0×10^−5 molal concentration (M)
MOLT-4 [12] = assay: in vitro test at 1.0×10^−5 M, Blood cancer cell; type: cell-based; settings: 1.0×10^−5 molal concentration (M)
MDA-MB-435 = assay: in vitro test at 1.0×10^−5 M, Breast cancer cell; type: cell-based; settings: 1.0×10^−5 molal concentration (M)
UACC-257 = assay: in vitro test at 1.0×10^−5 M, Skin cancer cell; type: cell-based; settings: 1.0×10^−5 molal concentration (M)
SF-539 = assay: in vitro test at 1.0×10^−5 M, CNS cancer cell; type: cell-based
U251 = assay: in vitro test at 1.0×10^−5 M, CNS cancer cell; type: cell-based
SK-MEL-2 = assay: in vitro test at 1.0×10^−5 M, Skin cancer cell; type: cell-based; settings: 1.0×10^−5 molal concentration (M)
MALME-3M = assay: in vitro test at 1.0×10^−5 M, Skin cancer cell; type: cell-based; settings: 1.0×10^−5 molal concentration (M)
ACHN = assay: in vitro test at 1.0×10^−5 M, Kidney cancer cell; type: cell-based; settings: 1.0×10^−5 molal concentration (M)
MCF7 = assay: in vitro test at 1.0×10^−5 M, Breast cancer cell; type: cell-based; settings: 1.0×10^−5 molal concentration (M)
IGROV1 = assay: in vitro test at 1.0×10^−5 M, Ovary cancer cell; type: cell-based; settings: 1.0×10^−5 molal concentration (M)
LOX IMV1 = assay: in vitro test at 1.0×10^−5 M, Skin cancer cell; type: cell-based; settings: 1.0×10^−5 molal concentration (M)
OVCAR-4 = assay: in vitro test at 1.0×10^−5 M, Ovary cancer cell; type: cell-based; settings: 1.0×10^−5 molal concentration (M)
MDA-MB-468 = assay: in vitro test at 1.0×10^−5 M, Breast cancer cell; type: cell-based; settings: 1.0×10^−5 molal concentration (M)
T-47D = assay: in vitro test at 1.0×10^−5 M, Breast cancer cell; type: cell-based; settings: 1.0×10^−5 molal concentration (M)
HOP-92 = assay: in vitro test at 1.0×10^−5 M, Non-small cell lung cancer cell; type: cell-based; settings: 1.0×10^−5 molal concentration (M)
UO-31 = assay: in vitro test at 1.0×10^−5 M, Kidney cancer cell; type: cell-based; settings: 1.0×10^−5 molal concentration (M)
HCC-2998 = assay: in vitro test at 1.0×10^−5 M, Colorectal cancer cell; type: cell-based; settings: 1.0×10^−5 molal concentration (M)
SN12C = assay: in vitro test at 1.0×10^−5 M, Kidney cancer cell; type: cell-based; settings: 1.0×10^−5 molal concentration (M)

O=C1c2ccccc2C(=O)c2c1ccc1nccnc21 [TABLE 5-1]
CC50 (MOLT-4 [1]): > 100 µM
GI50 (HL-60(TB) [2]): 0.677 µM
TGI (HL-60(TB) [2]): 1.15E−5
Percent Growth (HL-60(TB) [2]; Log10 Concentration −4.0): −54%
Percent Growth (HL-60(TB) [2]; Log10 Concentration −5.0): 3%
Percent Growth (HL-60(TB) [2]; Log10 Concentration −6.0): 47%
Percent Growth (HL-60(TB) [2]; Log10 Concentration −7.0): 67%
Percent Growth (HL-60(TB) [2]; Log10 Concentration −8.0): 83%
CC50 (HL-60(TB) [3]): 83.7 µM
GI50 (CCRF-CEM [4]): 2.46 µM
TGI (CCRF-CEM [4]): >1.00E−4
Percent Growth (CCRF-CEM [4]; Log10 Concentration −4.0): 20%
Percent Growth (CCRF-CEM [4]; Log10 Concentration −5.0): 22%
Percent Growth (CCRF-CEM [4]; Log10 Concentration −6.0): 68%
Percent Growth (CCRF-CEM [4]; Log10 Concentration −7.0): 91%
Percent Growth (CCRF-CEM [4]; Log10 Concentration −8.0): 90%
GI50 (MOLT-4 [5]): 3.65 µM
TGI (MOLT-4 [5]): >1.00E−4
Percent Growth (MOLT-4 [5]; Log10 Concentration −4.0): 4%
Percent Growth (MOLT-4 [5]; Log10 Concentration −5.0): 33%
Percent Growth (MOLT-4 [5]; Log10 Concentration −6.0): 72%
Percent Growth (MOLT-4 [5]; Log10 Concentration −7.0): 81%
Percent Growth (MOLT-4 [5]; Log10 Concentration −8.0): 89%
CC50 (CCRF-CEM [6]): > 100 µM
GI50 (K-562 [7]): 0.0683 µM
TGI (K-562 [7]): >1.00E−4
Percent Growth (K-562 [7]; Log10 Concentration −4.0): 10%
Percent Growth (K-562 [7]; Log10 Concentration −5.0): 17%
Percent Growth (K-562 [7]; Log10 Concentration −6.0): 30%
Percent Growth (K-562 [7]; Log10 Concentration −7.0): 41%
Percent Growth (K-562 [7]; Log10 Concentration −8.0): 94%
GI50 (RPMI-8226 [8]): 1.61 µM
TGI (RPMI-8226 [8]): >1.00E−4
Percent Growth (RPMI-8226 [8]; Log10 Concentration −4.0): 12%
Percent Growth (RPMI-8226 [8]; Log10 Concentration −5.0): 30%
Percent Growth (RPMI-8226 [8]; Log10 Concentration −6.0): 55%
Percent Growth (RPMI-8226 [8]; Log10 Concentration −7.0): 81%
Percent Growth (RPMI-8226 [8]; Log10 Concentration −8.0): 90%
CC50 (RPMI-8226 [9]): > 100 µM
CC50 (K-562 [10]): > 100 µM

CC1(C)Nc2ccc3c(c2N1)C(=O)c1ccccc1C3=O [No. 20, 2,2-Dimethyl-2,3-dihydro-1H-anthra[1,2-d]imidazole-6,11-dione]
Mean [11]: 80.41
inhibition effect on cancer cell line (Table 2 value) (UACC-62): 67.58
inhibition effect on cancer cell line (Table 2 value) (MOLT-4 [12]): 116.41
inhibition effect on cancer cell line (Table 2 value) (MDA-MB-435): 124.56
inhibition effect on cancer cell line (Table 2 value) (UACC-257): 118.22
inhibition effect on cancer cell line (Table 2 value) (SF-539): 93.56
inhibition effect on cancer cell line (Table 2 value) (U251): 87.84
inhibition effect on cancer cell line (Table 2 value) (SK-MEL-2): 8.04
inhibition effect on cancer cell line (Table 2 value) (MALME-3M): 155.47
inhibition effect on cancer cell line (Table 2 value) (ACHN): 50.17
inhibition effect on cancer cell line (Table 2 value) (MCF7): 83.58
inhibition effect on cancer cell line (Table 2 value) (IGROV1): −2.80
inhibition effect on cancer cell line (Table 2 value) (LOX IMV1): 61.88
inhibition effect on cancer cell line (Table 2 value) (OVCAR-4): 80.14
inhibition effect on cancer cell line (Table 2 value) (MDA-MB-468): 77.25
inhibition effect on cancer cell line (Table 2 value) (T-47D): 82.96
inhibition effect on cancer cell line (Table 2 value) (HOP-92): 5.10
inhibition effect on cancer cell line (Table 2 value) (UO-31): 30.65
inhibition effect on cancer cell line (Table 2 value) (HCC-2998): 136.96
inhibition effect on cancer cell line (Table 2 value) (SN12C): 91.98
